Experimental data taken from patent US11786519B2, “Apoptosis-inducing agents for the treatment of cancer and immune and autoimmune diseases” (AbbVie Inc., priority 2011, dated 2023).

The compounds below were run against Bcl-xL (Homo sapiens, UniProt Q07817) (assay: TR-FRET binding assay, competition with F-Bak for Bcl-xL). Conditions: competition with F-Bak probe, GST-Bcl-xL.
Procedure: Determination of the utility of compounds having Formula (I) as binders to and inhibitors of anti-apoptotic Bcl-xL proteins was performed using the Time Resolved-Fluorescence Resonance Energy Transfer (TR-FRET) Assay. Tb-anti-GST antibody was purchased from Invitrogen (Catalog No. PV4216).
The measurement of competition of compounds of the invention with F-Bak for a Bcl-2 family protein (Bcl-xL) binding site using a Time Resolved Fluorescence Resonance Energy Transfer (TR-FRET) binding assay:
Test compounds were serially diluted in DMSO starting at 50 µM (2× starting concentration; 10% DMSO) and 10 μL transferred into a 384-well plate.
The samples are then mixed on a shaker for 1 minute then incubated for an additional 2 hours at room temperature. For each assay plate, a probe/antibody and protein/antibody/probe mixture were included as a negative and a positive control, respectively. Fluorescence was measured on the ENVISION plate reader (Perkin Elmer) using a 340/35 nm excitation filter and 520/525 (F-Bak) and 495/510 nm ([…]) emission filters. Dissociation constants (Ki) were determined using Wang's equation (Wang, Z. X. An exact mathematical expression for describing competitive binding of two different ligands to a protein molecule. FEBS Lett. 1995 360:111-114). The TR-FRET assay can be performed in the presence of varying concentrations of human serum (HS) or fetal bovine serum (FBS).

Chain of Bcl-xL (Q07817 whole entry): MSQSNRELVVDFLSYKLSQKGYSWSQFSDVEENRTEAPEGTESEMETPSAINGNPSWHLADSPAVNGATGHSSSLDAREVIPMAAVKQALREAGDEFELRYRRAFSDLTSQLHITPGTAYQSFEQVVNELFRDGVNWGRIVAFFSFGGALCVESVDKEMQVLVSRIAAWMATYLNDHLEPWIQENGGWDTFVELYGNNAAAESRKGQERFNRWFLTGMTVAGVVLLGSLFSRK

Row | SMILES | Ki
1 | O=C(Nc1nc2ccccc2s1)c1cccc2c1CN(c1ccc(-c3cnn(CC45CC6CC(CC(O)(C6)C4)C5)c3)c(C(=O)O)n1)CC2 [Example 6, 6-[8-(1,3-benzothiazol-2-ylcarbamoyl)-3,4-dihydroisoquinolin-2(1H)-yl]-3-(1-{[3-hydroxytricyclo[3.3.1.1^3,7]dec-1-yl]methyl}-1H-pyrazol-4-yl)pyridine-2-carboxylic acid] | < 100 pM
2 | CC(C)OC12CC3CC(CC(Cn4cc(-c5ccc(N6CCc7cccc(C(=O)Nc8nc9ccccc9s8)c7C6)nc5C(=O)O)cn4)(C3)C1)C2 [Example 12, 6-[8-(1,3-benzothiazol-2-ylcarbamoyl)-3,4-dihydroisoquinolin-2(1H)-yl]-3-(1-{[3-(propan-2-yloxy)tricyclo[3.3.1.1^3,7]dec-1-yl]methyl}-1H-pyrazol-4-yl)pyridine-2-carboxylic acid] | < 100 pM
3 | COCCOC12CC3CC(CC(Cn4cc(-c5ccc(N6CCc7cccc(C(=O)Nc8nc9ccccc9s8)c7C6)nc5C(=O)O)cn4)(C3)C1)C2 [Example 8, 6-[8-(1,3-benzothiazol-2-ylcarbamoyl)-3,4-dihydroisoquinolin-2(1H)-yl]-3-(1-{[3-(2-methoxyethoxy)tricyclo[3.3.1.1^3,7]dec-1-yl]methyl}-1H-pyrazol-4-yl)pyridine-2-carboxylic acid] | < 100 pM
4 | O=C(Nc1nc2ccccc2s1)c1cccc2c1CN(c1ccc(-c3ccc(=O)n(CC45CC6CC(CC(C6)C4)C5)c3)c(C(=O)O)n1)CC2 [Example 85, 6-[8-(1,3-benzothiazol-2-ylcarbamoyl)-3,4-dihydroisoquinolin-2(1H)-yl]-6′-oxo-1′-(tricyclo[3.3.1.1^3,7]dec-1-ylmethyl)-1′,6′-dihydro-3,3′-bipyridine-2-carboxylic acid] | < 100 pM
5 | Cc1c(-c2ccc(N3CCc4cccc(C(=O)Nc5nc6ccccc6s5)c4C3)nc2C(=O)O)ccnc1S(=O)(=O)C12CC3CC(CC(C3)C1)C2 [Example 70, 6-[8-(1,3-benzothiazol-2-ylcarbamoyl)-3,4-dihydroisoquinolin-2(1H)-yl]-3′-methyl-2′-(tricyclo[3.3.1.1^3,7]dec-1-ylsulfonyl)-3,4′-bipyridine-2-carboxylic acid] | < 100 pM
6 | O=C(Nc1nc2ccccc2s1)c1cccc2c1CN(c1ccc(-c3cnn(CC45CC6CC(CC(Br)(C6)C4)C5)c3)c(C(=O)O)n1)CC2 [Example 11, 6-[8-(1,3-benzothiazol-2-ylcarbamoyl)-3,4-dihydroisoquinolin-2(1H)-yl]-3-(1-{[3-bromotricyclo[3.3.1.1^3,7]dec-1-yl]methyl}-1H-pyrazol-4-yl)pyridine-2-carboxylic acid] | < 100 pM
7 | Cc1c(-c2ccc(N3CCc4cccc(C(=O)Nc5nc6ccccc6s5)c4C3)nc2C(=O)O)cc(C#N)n1CC12CC3CC(CC(C)(C3)O1)C2 [Example 72, 6-[8-(1,3-benzothiazol-2-ylcarbamoyl)-3,4-dihydroisoquinolin-2(1H)-yl]-3-{5-cyano-2-methyl-1-[(3-methyl-2-oxatricyclo[3.3.1.1^3,7]dec-1-yl)methyl]-1H-pyrrol-3-yl}pyridine-2-carboxylic acid] | < 100 pM
8 | N#Cc1c(-c2ccc(N3CCc4cccc(C(=O)Nc5nc6ccccc6s5)c4C3)nc2C(=O)O)cccc1S(=O)(=O)C12CC3CC(CC(C3)C1)C2 [Example 60, 6-[8-(1,3-benzothiazol-2-ylcarbamoyl)-3,4-dihydroisoquinolin-2(1H)-yl]-3-[2-cyano-3-(tricyclo[3.3.1.1^3,7]dec-1-ylsulfonyl)phenyl]pyridine-2-carboxylic acid] | < 100 pM
9 | Cc1c(-c2ccc(N3CCc4cccc(C(=O)Nc5nc6ccccc6s5)c4C3)nc2C(=O)O)nnn1CC12CC3CC(CC(C3)C1)C2 [Example 57, 6-[8-(1,3-benzothiazol-2-ylcarbamoyl)-3,4-dihydroisoquinolin-2(1H)-yl]-3-[5-methyl-1-(tricyclo[3.3.1.1^3,7]dec-1-ylmethyl)-1H-1,2,3-triazol-4-yl]pyridine-2-carboxylic acid] | < 100 pM
10 | O=C(Nc1nc2ccccc2s1)c1cccc2c1CN(c1ccc(-c3cnn(CC4CCC5(CCC5)CC4)c3)c(C(=O)O)n1)CC2 [Example 4, 6-[8-(1,3-benzothiazol-2-ylcarbamoyl)-3,4-dihydroisoquinolin-2(1H)-yl]-3-[1-(spiro[3.5]non-7-ylmethyl)-1H-pyrazol-4-yl]pyridine-2-carboxylic acid] | 500 pM
11 | O=C(Nc1nc2ccccc2s1)c1cccc2c1CN(c1ccc(-c3cnn(CC45CC6CC(C4)CC(N4CCOCC4)(C6)C5)c3)c(C(=O)O)n1)CC2 [Example 15, 6-[8-(1,3-benzothiazol-2-ylcarbamoyl)-3,4-dihydroisoquinolin-2(1H)-yl]-3-(1-{[3-(morpholin-4-yl)tricyclo[3.3.1.1^3,7]dec-1-yl]methyl}-1H-pyrazol-4-yl)pyridine-2-carboxylic acid] | < 100 pM
12 | Cc1c(-c2ccc(N3CCc4cccc(C(=O)Nc5nc6ccccc6s5)c4C3)nc2C(=O)O)cnn1CC1C2CC3CC(C2)CC1C3 (centres unmarked) [Example 62, 6-[8-(1,3-benzothiazol-2-ylcarbamoyl)-3,4-dihydroisoquinolin-2(1H)-yl]-3-[5-methyl-1-(tricyclo[3.3.1.1^3,7]dec-2-ylmethyl)-1H-pyrazol-4-yl]pyridine-2-carboxylic acid] | < 100 pM
13 | COC12CC3CC(CC(Cn4cc(-c5ccc(N6CCc7cccc(C(=O)Nc8nc9ccccc9s8)c7C6)nc5C(=O)O)cn4)(C3)C1)C2 [Example 7, 6-[8-(1,3-benzothiazol-2-ylcarbamoyl)-3,4-dihydroisoquinolin-2(1H)-yl]-3-(1-{[3-methoxytricyclo[3.3.1.1^3,7]dec-1-yl]methyl}-1H-pyrazol-4-yl)pyridine-2-carboxylic acid] | < 100 pM
14 | COC12CC3(C)CC(C)(CC(Cn4ncc(-c5ccc(N6CCc7cccc(C(=O)Nc8nc9ccccc9s8)c7C6)nc5C(=O)O)c4C)(C3)C1)C2 [Example 38, 6-[8-(1,3-benzothiazol-2-ylcarbamoyl)-3,4-dihydroisoquinolin-2(1H)-yl]-3-(1-{[3-methoxy-5,7-dimethyltricyclo[3.3.1.1^3,7]dec-1-yl]methyl}-5-methyl-1H-pyrazol-4-yl)pyridine-2-carboxylic acid] | < 100 pM
15 | Cc1c(NC(=O)C23CC4CC(CC(C4)C2)C3)cccc1-c1ccc(N2CCc3cccc(C(=O)Nc4nc5ccccc5s4)c3C2)nc1C(=O)O [Example 50, 6-[8-(1,3-benzothiazol-2-ylcarbamoyl)-3,4-dihydroisoquinolin-2(1H)-yl]-3-(2-methyl-3-{[tricyclo[3.3.1.1^3,7]dec-1-ylcarbonyl]amino}phenyl)pyridine-2-carboxylic acid] | 9000 pM
16 | O=C(Nc1nc2ccccc2s1)c1cccc2c1CN(c1ccc(-c3cnn(CC4C5CC6CC(C5)CC4C6)c3)c(C(=O)O)n1)CC2 (centres unmarked) [Example 10, 6-[8-(1,3-benzothiazol-2-ylcarbamoyl)-3,4-dihydroisoquinolin-2(1H)-yl]-3-[1-(tricyclo[3.3.1.1^3,7]dec-2-ylmethyl)-1H-pyrazol-4-yl]pyridine-2-carboxylic acid] | < 100 pM
17 | Cc1c(-c2ccc(N3CCc4cccc(C(=O)Nc5nc6ccccc6s5)c4C3)nc2C(=O)O)cccc1N(C)C(=O)C12CC3CC(CC(C3)O1)C2 [Example 68, 6-[8-(1,3-benzothiazol-2-ylcarbamoyl)-3,4-dihydroisoquinolin-2(1H)-yl]-3-{2-methyl-3-[methyl(2-oxatricyclo[3.3.1.1^3,7]dec-1-ylcarbonyl)amino]phenyl}pyridine-2-carboxylic acid] | < 100 pM
